Columns and labels:
FLAG-tagged PRMT4 = target: T1, FLAG-tagged PRMT4 (Mus musculus, UniProt Q9WVG6); experiment: Fluorescence-based in vitro PRMT assay (F-PRMT assay), PRMT4; assay type: biochemical; conditions: for Experimental result (PRMT4): vs solvent control = 100%
T1 construct: Full-length FLAG-tagged PRMT protein; made in house; host or cells: Sf9 insect cells (baculovirus)
T1 sequence (Q9WVG6 1-608): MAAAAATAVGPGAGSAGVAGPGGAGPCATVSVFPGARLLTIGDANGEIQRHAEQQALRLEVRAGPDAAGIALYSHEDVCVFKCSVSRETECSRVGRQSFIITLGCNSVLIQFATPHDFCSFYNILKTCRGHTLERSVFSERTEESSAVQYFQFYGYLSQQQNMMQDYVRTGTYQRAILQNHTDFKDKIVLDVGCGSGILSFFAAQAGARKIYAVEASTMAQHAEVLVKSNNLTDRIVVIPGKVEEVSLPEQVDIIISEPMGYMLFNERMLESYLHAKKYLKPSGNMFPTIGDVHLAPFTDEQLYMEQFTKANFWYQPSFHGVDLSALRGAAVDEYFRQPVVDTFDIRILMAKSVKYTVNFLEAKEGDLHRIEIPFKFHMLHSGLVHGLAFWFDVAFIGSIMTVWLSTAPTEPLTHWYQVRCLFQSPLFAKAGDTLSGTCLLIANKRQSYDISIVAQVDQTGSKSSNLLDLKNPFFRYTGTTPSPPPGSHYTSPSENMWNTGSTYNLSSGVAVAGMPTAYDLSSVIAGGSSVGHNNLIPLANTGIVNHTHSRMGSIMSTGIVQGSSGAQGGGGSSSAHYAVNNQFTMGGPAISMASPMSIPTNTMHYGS
Procedure, shortened: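 Baculovirus/Sf9-expressed FLAG-PRMTs (human PRMT3, PRMT6; mouse PRMT4), anti-FLAG purified and used bead-bound, methylated Bz-Arg-AMC with SAM for 2 h at 37 °C, 1,000 rpm. Technical triplicates; no-SAM negative controls.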

PANC-1 xenografts = experiment: PDAC xenograft mouse model, tumor growth; assay type: in vivo; conditions: female athymic nude mice, intraperitoneal, 2 weeks; 150 mg/kg TR-07 daily, 10 mg/kg gemcitabine every second day; n = 5
[1] = Tolerability, body weight monitoring of xenograft mice; conditions: female athymic nude mice, 150 mg/kg TR-07 daily, 10 mg/kg gemcitabine every second day, 2 weeks

With `CN(C)Cc1cccc(CN/C=C2\C(=O)NC(=O)c3ccccc32)c1.Cl` [TR-07, (Z)-1-[3-({[(1,3-Dioxo-2,3-dihydroisoquinolin-4(1H)-lidene)methyl]amino}methyl)phenyl]-N,N-dimethylmethanaminium chloride] the “effect on PRMT4 activity (in words)” value (FLAG-tagged PRMT4; 100 μM compound) was “neither positively nor negatively influencing”, the “Experimental result (PRMT4)” value (FLAG-tagged PRMT4; Table 1, 100 μM compound, 2 μM PRMT, n = 3, racemates used) was “PRMT4 n.e. (Compounds, which did not significantly affect the catalytic activity (less than ±6% change or not significant p-value), are marked with [drawing 8] (no effect))” and the “Experimental result (PRMT4)” value (FLAG-tagged PRMT4; Table S3, 100 µM compound, n≥3) was “n.e. (did not significantly affect the catalytic activity (less than ±6% change or not significant p-value), are marked with n.e. (no effect))”. For the same compound, the “tumor growth of PANC-1 xenografts” value (PANC-1 xenografts) was “significantly reduced the tumor growth compared to the control mice” and the “tolerability (adverse or systemic toxic effects, body weights)” value [1] was “well tolerated”.

Source: article PMC13576449, “Small-Molecule Activators of PRMT1: Discovery, SAR Analyses, and Proapoptotic Effects in Pancreatic Cancer Cells” (Journal of Medicinal Chemistry, 2026)
